Data from patent US20230123334A1, “AMINO LIPID COMPOUND, PREPARATION METHOD THEREFOR, AND APPLICATION THEREOF” (SHENZHEN SHENXIN BIOTECHNOLOGY CO., LTD., priority 2020, published 2023).

System: HEK293 cells
Assay: Preliminary screening as mRNA vectors, EGFP mRNA transfection of HEK293 cells
Format: cell-based
Conditions: EGFP mRNA 50 ng per well, 96-well plates; percentage of GFP fluorescent cells relative to total number of cells (Hoechst)
Outline: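 Each well of HEK293 cells received 50 ng of EGFP mRNA. Efficiency was expressed as percent GFP-expressing cells over Hoechst-defined total cell number.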

## CCCCCCCCCCCCCCCCCCSc1nc(NCCCCCCCCCCCCCCC)nc(NCC2CCN(C)CC2)n1 [Compound D10S18N15]
  Absolute mRNA transfection efficiency in HEK293 cells: 0.2%

## CCCCCCCCCCCNc1nc(NCCN(CC)CC)nc(SCCCCCCC)n1 [Compound D7S7N11]
  Absolute mRNA transfection efficiency in HEK293 cells: 11.1%

## CCCCCCCCCCCCCCCCCCNc1nc(NCCN2CCOCC2)nc(SCCCCCC)n1 [Compound D2S6N18]
  Absolute mRNA transfection efficiency in HEK293 cells: 4.5%

## CCCCCCCCCCSc1nc(NCC2CCN(C)CC2)nc(SCCCCCC)n1 [Compound D10S6S10]
  Absolute mRNA transfection efficiency in HEK293 cells: 22.4%

## CCCCCCCCCCCCCCCCNc1nc(NCCCN(C)C)nc(SCCCCCCCCCC)n1 [Compound D6S10N16]
  Absolute mRNA transfection efficiency in HEK293 cells: 51.5%

## CCCCCCCCCCCCCCCNc1nc(NCCN(C)C)nc(SCCCCCCCCCC)n1 [Compound D1S10N15]
  Absolute mRNA transfection efficiency in HEK293 cells: 2.8%

## CCCCCCCCCCCCCCCCCCNc1nc(NCCN2CCN(C)CC2)nc(SCCCCCCCCCCCCCCCCCC)n1 [Compound D5S18N18]
  Absolute mRNA transfection efficiency in HEK293 cells: 0.0%

## CCCCCCCCCCCCCCCCCCSc1nc(NCCCCCCCCCCCC)nc(NCCN2CCN(C)CC2)n1 [Compound D5S18N12]
  Absolute mRNA transfection efficiency in HEK293 cells: 1.7%

## CCCCCCCCCSc1nc(NCCN(C)C)nc(SCCCCCCC)n1 [Compound D1S7S9]
  Absolute mRNA transfection efficiency in HEK293 cells: 8.1%

## CCCCCCCCCCCCNc1nc(NCCN2CCCCC2)nc(SCCCCCCCC)n1 [Compound D4S8N12]
  Absolute mRNA transfection efficiency in HEK293 cells: 3.5%

## CCCCCCCCCSc1nc(NCCCCCCCC)nc(NCCN2CCCCC2)n1 [Compound D4S9N8]
  Absolute mRNA transfection efficiency in HEK293 cells: 6.6%

## CCCCCCCCCCCCCCSc1nc(NCCCCCCCC)nc(NCCCN2CCN(C)CC2)n1 [Compound D9S14N8]
  Absolute mRNA transfection efficiency in HEK293 cells: 24.8%

## CCCCCCCCCCCCCCSc1nc(NCCCCCCCCCCCC)nc(NCCCN2CCN(C)CC2)n1 [Compound D9S14N12]
  Absolute mRNA transfection efficiency in HEK293 cells: 8.0%

## CCCCCCCCCCCCCCCCSc1nc(NCCCN(C)C)nc(N(CCCCCCCCCCCC)CCCCCCCCCCCC)n1 [D6S16^2N12]
  Absolute mRNA transfection efficiency in HEK293 cells: 1.0%

## CCCCCCCCCCCCCCCNc1nc(NCCN2CCCC2)nc(SCCCCCCCCCCCC)n1 [Compound D3S12N15]
  Absolute mRNA transfection efficiency in HEK293 cells: 1.5%

## CCCCCCCSc1nc(NCCN2CCCCC2)nc(SCCCCCC)n1 [Compound D4S6S7]
  Absolute mRNA transfection efficiency in HEK293 cells: 1.2%

## CCCCCCCCCCCCCCCNc1nc(NCC2CCN(C)CC2)nc(SCCCCCCCCCC)n1 [Compound D10S10N15]
  Absolute mRNA transfection efficiency in HEK293 cells: 13.2%

## CCCCCCCCCCCCCNc1nc(NCCN2CCCCC2)nc(SCCCCCCCCCC)n1 [Compound D4S10N13]
  Absolute mRNA transfection efficiency in HEK293 cells: 0.3%

## CCCCCCCCCCCCCNc1nc(NCCCN2CCOCC2)nc(SCCCCCCCCCCC)n1 [Compound D8S11N13]
  Absolute mRNA transfection efficiency in HEK293 cells: 3.1%

## CCCCCCCCCCCCCCCCCCSc1nc(NCCCCCCC)nc(NCCN2CCN(C)CC2)n1 [Compound D5S18N7]
  Absolute mRNA transfection efficiency in HEK293 cells: 67.7%

## CCCCCCCCCCCCCNc1nc(NCCN(CC)CC)nc(SCCCCCCCCC)n1 [Compound D7S9N13]
  Absolute mRNA transfection efficiency in HEK293 cells: 33.4%

## CCCCCCCCCCCCCCCCNc1nc(NCCN2CCN(C)CC2)nc(SCCCCCCCCCCCCCCC)n1 [Compound D5S15N16]
  Absolute mRNA transfection efficiency in HEK293 cells: 1.4%

## CCCCCCCCCCCCCCCNc1nc(NCCN2CCCC2)nc(SCCCCCCCCCC)n1 [Compound D3S10N15]
  Absolute mRNA transfection efficiency in HEK293 cells: 57.6%

## CCCCCCCCCSc1nc(NCCN2CCN(C)CC2)nc(SCCCCCC)n1 [Compound D5S6S9]
  Absolute mRNA transfection efficiency in HEK293 cells: 8.3%

## CCCCCCCCCCSc1nc(NCCN2CCCC2)nc(SCCCCCC)n1 [Compound D3S6S10]
  Absolute mRNA transfection efficiency in HEK293 cells: 2.5%

## CCCCCCCCCCCSc1nc(NCCN(C)C)nc(SCCCCCCCC)n1 [Compound D1S8S11]
  Absolute mRNA transfection efficiency in HEK293 cells: 3.0%

## CCCCCCCCCCCCSc1nc(NCCN2CCN(C)CC2)nc(N(CCCCCCCCCCCC)CCCCCCCCCCCC)n1 [D5S12^2N12]
  Absolute mRNA transfection efficiency in HEK293 cells: 1.6%

## CCCCCCCCCCCCCCCCNc1nc(NCCN(C)C)nc(SCCCCCCC)n1 [Compound D1S7N16]
  Absolute mRNA transfection efficiency in HEK293 cells: 29.5%

## CCCCCCCCSc1nc(NCCCN(C)C)nc(SCCCCCCCC)n1 [Compound D6S8S8]
  Absolute mRNA transfection efficiency in HEK293 cells: 45.6%

## CCCCCCCCCSc1nc(NCCCCCCC)nc(NCCCN2CCN(C)CC2)n1 [Compound D9S9N7]
  Absolute mRNA transfection efficiency in HEK293 cells: 2.8%

## CCCCCCCCCCCCSc1nc(NCCN2CCOCC2)nc(SCCCCCCC)n1 [Compound D2S7S12]
  Absolute mRNA transfection efficiency in HEK293 cells: 19.2%

## CCCCCCCCSc1nc(NCCCCCC)nc(NCCCN2CCN(C)CC2)n1 [Compound D9S8N6]
  Absolute mRNA transfection efficiency in HEK293 cells: 0.7%

## CCCCCCCCCCSc1nc(NCCCCCC)nc(NCCN(CC)CC)n1 [Compound D7S10N6]
  Absolute mRNA transfection efficiency in HEK293 cells: 0.6%
